Reference: US8759368B2, “Benzoic acid, benzoic acid derivatives and heteroaryl carboxylic acid conjugates of hydrocodone, prodrugs, methods of making and use thereof” (KemPharma, Inc., priority 2009, dated 2014)

Assays:
[1] = Chemical stability: hydrolysis of conjugate in water for one hour; type: physicochemical; settings: for water, ambient (amount of conjugate hydrolyzed): ambient temperature (about 20° C.); for water, 100° C. (amount of conjugate hydrolyzed): oil bath at 100° C.
Procedure: Exemplary conjugates of hydrocodone of the present technology and control test conjugates not of the present technology were tested for chemical stability under conditions similar to what a potential drug abuser may use to “extract” the active portion of the molecule, for example dissolved in water, hydrochloric acid or sodium bicarbonate either at ambient temperature or 100° C.

[2] = Chemical stability: hydrolysis to hydrocodone in 1 N HCl for 1 hour; settings: for %-release in 1N HCl, ambient: ambient temperature (~20° C.); for %-release in 1N HCl, 100° C.: oil bath at 100° C.
[3] = Oral PK in rats, plasma hydrocodone, hydromorphone and intact conjugate by LC-MS/MS
[4] = Chemical stability: hydrolysis in 5% NaHCO3 for one hour; type: physicochemical; settings: 5% NaHCO3, one hour; for %-release in 5% NaHCO3, ambient: ambient temperature (~20° C.); for %-release in 5% NaHCO3, 100° C.: oil bath at 100° C.
[5] = Water solubility / hydrophobicity of conjugates (feasibility of intranasal or intravenous dosing); settings: for hydrophobic character (in words): do not dissolve in a practical amount of water for intravenous dosing at oral equivalent doses; for water solubility (in words): mixed with water, basis for intranasal or intravenous dosing in rats
[6] = Intranasal PK in rats, plasma hydrocodone and hydromorphone by LC-MS/MS; settings: equivalent to 2 mg/kg hydrocodone freebase
[7] = Oral PK in dogs, plasma intact Bz-HC, hydrocodone and hydromorphone by LC-MS/MS; settings: equivalent to 2 mg/kg freebase hydrocodone, FIG. 17
[8] = equivalent to 2 mg/kg hydrocodone freebase, FIG. 11
[9] = equivalent to 2 mg/kg hydrocodone freebase, FIG. 12
[10] = equivalent to 2 mg/kg freebase hydrocodone, FIG. 14

Row | Molecule | %-release in 1N HCl, ambient [2] [%] | %-release in 1N HCl, 100° C. [2] [%] | %-release in 5% NaHCO3, ambient [4] [%] | %-release in 5% NaHCO3, 100° C. [4] [%] | hydrophobic character (in words) [5] | water solubility (in words) [5] | other results
1 | COc1ccc2c3c1OC1C(OC(=O)c4ccccc4N)=CCC4C(C2)N(C)CCC314.Cl.Cl (stereo not shown) [Compound 2-ABz-HC, 2-Aminobenzoic Acid Ester of Hydrocodone Dihydrochloride Salt] | 0 | 16 |  |  |  |  | water, ambient (amount of conjugate hydrolyzed) [1]: 0%; water, 100° C. (amount of conjugate hydrolyzed) [1]: 0%; hydrocodone AUC, lower than for Hydrocodone.BT [3, 8]: approximately 35%; hydrocodone Cmax, lower than for Hydrocodone.BT [3, 8]: ~60%; hydromorphone AUC, lower than for Hydrocodone.BT [3, 9]: approximately 25%; hydromorphone Cmax, lower than for Hydrocodone.BT [3, 9]: ~50%
2 | Tyr-Tyr-Phe-Phe-Ile-Hydrocodone [YYFFI-HC, reference compound] |  |  | 0 | 70 |  |  | 
3 | COc1ccc2c3c1OC1C(OC(=O)c4cccc(O)c4)=CCC4C(C2)N(C)CCC314 (stereo not shown) [Compound 3-OH-Bz-HC] |  |  |  |  | hydrophobic | poorly water soluble | 
4 | COc1ccc2c3c1OC1C(OC(=O)COCC(=O)O)=CC[C@H]4[C@@H](C2)N(C)CC[C@]314 (stereo partly shown) [Diglycolate-HC, reference compound] |  |  |  |  |  | water soluble | 
5 | COc1ccc2c3c1OC1C(OC(=O)c4ccc5c(c4)OCO5)=CC[C@H]4[C@@H](C2)N(C)CC[C@]314 (stereo partly shown) [Piperonylate-HC] |  |  |  |  | hydrophobic | poorly water soluble | 
6 | COc1ccc(C(=O)OC2=CC[C@H]3[C@H]4Cc5ccc(OC)c6c5[C@@]3(CCN4C)C2O6)cc1O (stereo partly shown) [3-OH-4-MeO-Bz-HC] | 0 | 35 | 0 | 36 | hydrophobic | poorly water soluble | 
7 | COc1ccc2c3c1O[C@H]1C(OC(=O)c4ccccc4O)=CC[C@H]4[C@@H](C2)N(C)CC[C@]314.Cl [Compound 2-OH-Bz-HC, Salicylic Acid Ester of Hydrocodone Hydrochloride Salt] |  |  |  |  | hydrophobic |  | 
8 | COc1ccc2c3c1OC1C(OC(=O)CCCCC(=O)O)=CC[C@H]4[C@@H](C2)N(C)CC[C@]314 (stereo partly shown) [Adipate-HC, reference compound] | 13 | 100 | 3 | 100 |  | water soluble | AUC for hydromorphone released from Adipate-HC, higher than for Bz-HC (sentence on hydrocodone plasma concentrations) ([6]; FIG. 7): approximately 280%; Cmax for hydromorphone released from Adipate-HC, higher than for Bz-HC (sentence on hydrocodone plasma concentrations) ([6]; FIG. 7): ~60%; AUC for hydromorphone released from Adipate-HC, higher than for Bz-HC ([6]; FIG. 8): approximately 750%; Cmax for hydromorphone released from Adipate-HC, higher than for Bz-HC ([6]; FIG. 8): ~660%
9 | COc1ccc2c3c1O[C@H]1C(OC(=O)c4ccc(O)cc4)=CC[C@H]4[C@@H](C2)N(C)CC[C@]314 [Compound 4-OH-Bz-HC] | 0 | 30 | 1 | 23 | hydrophobic |  | water, ambient (amount of conjugate hydrolyzed) [1]: 0%; water, 100° C. (amount of conjugate hydrolyzed) [1]: 0%
10 | COc1ccc2c3c1OC1C(OC(=O)c4ccccc4)=CCC4C(C2)N(C)CCC314 (stereo not shown) [Bz-HC, benzoate-hydrocodone] |  |  |  |  | hydrophobic | poor water solubility | hydrocodone plasma concentrations compared with Adipate-HC ([6]; FIG. 7): significantly lower; plasma concentration of hydromorphone compared with Adipate-HC ([6]; FIG. 8): very low; AUC value for intact Bz-HC as % of the AUC value for hydrocodone [7]: approximately 10%; Cmax values of hydrocodone and hydromorphone versus dose ([3]; 0.25 to 4.00 mg/kg, particularly for hydromorphone): more variable; maximum plasma concentrations of hydromorphone versus dose ([3]; doses above 2.00 mg/kg of Bz-HC): did not significantly change; exposures (AUC) to hydrocodone and hydromorphone versus dose ([3]; doses of Bz-HC between 0.25 and 4.00 mg/kg, FIGS. 19 and 20): fairly linear; oral PK curve for released hydrocodone compared with YYFFI-HC ([3]; equivalent to 2 mg/kg freebase hydrocodone, FIG. 5): somewhat similar; AUC for intact Bz-HC as % of the AUC value for hydrocodone [3, 10]: approximately 10%; AUC for intact Bz-HC as % of the AUC value for hydromorphone [3, 10]: ~3%
11 | COc1ccc(C(=O)OC2=CC[C@H]3[C@H]4Cc5ccc(OC)c6c5[C@@]3(CCN4C)C2O6)cc1 (stereo partly shown) [Compound 4-MeO-Bz-HC] |  |  |  |  | hydrophobic |  | water, ambient (amount of conjugate hydrolyzed) [1]: 0%; water, 100° C. (amount of conjugate hydrolyzed) [1]: 0%
12 | COc1ccc2c3c1OC1C(OC(=O)c4cccnc4)=CCC4C(C2)N(C)CCC314 (stereo not shown) [Nicotinate-HC, nicotinate-hydrocodone] |  |  |  |  | hydrophobic |  | hydrocodone and hydromorphone plasma concentrations compared with unconjugated Hydrocodone.BT ([3]; equivalent to 2 mg/kg hydrocodone freebase, FIGS. 9 and 10): below the respective concentrations; AUC values of hydrocodone and hydromorphone compared with Hydrocodone.BT ([3]; same dose based on hydrocodone freebase): within the range of bioequivalence
